Counter-ions that a name gives are not always drawn.
Experiments:
ALDH1A1 enzyme = molecular target: T1, ALDH1A1 enzyme (Homo sapiens, UniProt P00352); assay: ALDH1A1 enzymatic assay (in vitro); type: biochemical; conditions: ALDH1A1 enzyme 20 nM, NAD+ 1 mM, propionaldehyde 80 μM; read-out: ALDH1A1 IC50
T1 sequence (P00352 1-501): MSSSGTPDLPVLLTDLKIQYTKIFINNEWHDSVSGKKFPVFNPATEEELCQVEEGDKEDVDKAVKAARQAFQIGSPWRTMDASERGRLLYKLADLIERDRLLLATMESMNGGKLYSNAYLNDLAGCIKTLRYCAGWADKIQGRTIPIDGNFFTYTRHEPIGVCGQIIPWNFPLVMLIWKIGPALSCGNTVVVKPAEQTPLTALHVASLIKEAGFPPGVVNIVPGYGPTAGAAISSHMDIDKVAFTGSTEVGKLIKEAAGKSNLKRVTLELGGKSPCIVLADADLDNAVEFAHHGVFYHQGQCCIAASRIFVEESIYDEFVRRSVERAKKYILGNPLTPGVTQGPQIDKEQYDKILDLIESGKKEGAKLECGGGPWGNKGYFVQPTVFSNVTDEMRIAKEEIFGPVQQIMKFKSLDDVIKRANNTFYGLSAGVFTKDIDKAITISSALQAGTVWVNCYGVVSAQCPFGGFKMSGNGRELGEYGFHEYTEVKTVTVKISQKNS
Description: Example 358. ALDH1A1 Enzymatic Assay (In Vitro Assay)
3 μL of ALDH1A1 enzyme (final concentration 20 nM) or assay buffer (100 mM HEPES pH 7.5 with 0.01% Tween 20) were dispensed into a 1,536-well solid-bottom black plate (Greiner Bio One, Monroe, N.C.) followed by pin-tool transfer (23 nL) of candidate inhibitors (final concentration range 968 pM to 57.2 μM) and control (Bay 11-7085, final concentration range 1.31 nM to 2.86 μM). Samples were incubated (RT, protected from light) for 15 minutes followed by a 1 μL substrate addition of NAD^+ and Propionaldehyde (final concentrations of 1 mM and 80 μM, respectively). Plates were centrifuged at 1,000 rpm for 15 seconds, then read in kinetic mode on a ViewLux High-throughput CCD imager (Perkin-Elmer) equipped with standard UV fluorescence optics (340 nm excitation, 450 nm emission) for 10 minutes. The change in fluorescence intensity over the 10-minute reaction period was normalized against no-inhibitor and no-enzyme controls and the resulting percent inhibition data were fitted for biological activity.

MIA PaCa-2 cells = assay: MIA PaCa2 cell-based assay (1,536-well high-content imaging ALDEFLUOR assay); design: species or system human; conditions: Homo sapiens, 0.5 h, ALDEFLUOR BAAA substrate 500 nM, 30 minutes
Summary of the method: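 High-content ALDEFLUOR imaging readout: BAA-retaining cells in FITC channel scored against Hoechst-counted nuclei. Before imaging, MIA PaCa-2 cells seeded at 1,000 per well received final 500 nM BAAA and 0.5 nM Hoechst with compounds in 16-point series (1.4 nM to 47.8 μM), 30 min, 37° C.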

SMILES	IC50 (ALDH1A1 enzyme) [µM]	IC50 (MIA PaCa-2 cells) [µM]
COc1ccc2ncc(C(=O)N3CCN(C(=O)C4CC4)CC3)c(NC3CCN(C)CC3)c2c1 [Example 21, (4-(cyclopropanecarbonyl)piperazin-1-yl)(6-methoxy-4-((1-methylpiperidin-4-yl)amino)quinolin-3-yl)methanone, TFA]	> 10	
COc1ccc2ncc(C(=O)N3CCN(C(=O)C4CC4)CC3)c(-n3cc(C)cn3)c2c1 [Example 35, (4-(cyclopropanecarbonyl)piperazin-1-yl)(6-methoxy-4-(4-methyl-1H-pyrazol-1-yl)quinolin-3-yl)methanone]	> 10	
COc1ccc2ncc(C(=O)N3CCN(C(=O)C4CC4)CC3)c(N3C[C@@H](C)O[C@@H](C)C3)c2c1 [Example 34, (4-(cyclopropanecarbonyl)piperazin-1-yl)(44(2S*,6R*)-2,6-dimethylmorpholino)-6-methoxyquinolin-3-yl)methanone]	> 10	
C[C@@H]1CN(c2c(C(=O)N3CCN(C(=O)C4CC4)CC3)cnc3ccc(F)cc23)C[C@H](C)O1 [Example 60, (4-(cyclopropanecarbonyl)piperazin-1-yl)(44(2S*,6R*)-2,6-dimethylmorpholino)-6-fluoroquinolin-3-yl)methanone]	> 10	
CC1(C#N)CCN(c2c(C(=O)N3CCN(C(=O)C4CC4)CC3)cnc3ccc(F)cc23)CC1 [Example 64, 1-(3-(4-(cyclopropanecarbonyl)piperazine-1-carbonyl)-6-fluoroquinolin-4-yl)-4-methylpiperidine-4-carbonitrile]		1 to 10
O=C(c1cnc2ccc(F)cc2c1N1CCC2(CC1)OCCO2)N1CCN(C(=O)C2CC2)CC1 [Example 31, (4-(cyclopropanecarbonyl)piperazin-1-yl)(6-fluoro-4-(1,4-dioxa-8-azaspiro[4.5]decan-8-yl)quinolin-3-yl)methanone]		1 to 10
CC1(C#N)CCN(c2c(C(=O)N3CCN(S(=O)(=O)C4CC4)CC3)cnc3ccc(F)cc23)CC1 [Example 85, 1-(3-(4-(cyclopropylsulfonyl)piperazine-1-carbonyl)-6-fluoroquinolin-4-yl)-4-methylpiperidine-4-carbonitrile]		> 10
CC1(C#N)CCN(c2c(C(=O)N3CCN(S(C)(=O)=O)CC3)cnc3[nH]ncc23)CC1 [Example 235, 4-methyl-1-(5-(4-(methylsulfonyl)piperazine-1-carbonyl)-1H-pyrazolo[3,4-b]pyridin-4-yl)piperidine-4-carbonitrile]		> 10
CS(=O)(=O)N1CCN(C(=O)c2cnc3ccc(F)cc3c2N2CCC3(CC2)CC(=O)c2ccccc23)CC1 [Example 199, 1′-(6-fluoro-3-(4-(methylsulfonyl)piperazine-1-carbonyl)quinolin-4-yl)spiro[indene-1,4′-piperidin]-3(2H)-one]		1 to 10
CC1(C#N)CCN(c2c(C(=O)N3CCN(S(C)(=O)=O)CC3)cnc3ccc(F)cc23)CC1 [Example 86, 1-(6-fluoro-3-(4-(methylsulfonyl)piperazine-1-carbonyl)quinolin-4-yl)-4-methylpiperidine-4-carbonitrile]		1 to 10
O=C(c1cnc2ccc(Cl)cc2c1N1CCC2(CC1)OCCO2)N1CCN(C(=O)C2CC2)CC1 [Example 45, (6-chloro-4-(1,4-dioxa-8-azaspiro[4.5]decan-8-yl)quinolin-3-yl)(4-(cyclopropanecarbonyl)piperazin-1-yl)methanone]		1 to 10
COc1ccc2ncc(C(=O)N3CCN(C(=O)C4CC4)CC3)c(N3CCC(=O)CC3)c2c1 [Example 67, 1-(3-(4-(cyclopropanecareonyl)piperazine-1-carbonyl)-6-methoxyquinolin-4-yl)piperidin-4-one]		> 10
O=C(c1cnc2c(F)cc(F)cc2c1N1CCC2(CC1)OCCO2)N1CCN(C(=O)C2CC2)CC1 [Example 78, (4-(cyclopropanecarbonyl)piperazin-1-yl)(6,8-difluoro-4-(1,4-dioxa-8-azaspiro[4.5]decan-8-yl)quinolin-3-yl)methanone]		1 to 10
CC(=O)N1CCN(c2c(C(=O)N3CCN(C(=O)C4CC4)CC3)cnc3ccc(F)cc23)CC1 [Cpd. 304, 1-(4-(3-(4-(cyclopropanecarbonyl)piperazine-1-carbonyl)-6-fluoroquinolin-4-yl)piperazin-1-yl)ethanone]		> 10
O=C(c1cnc2ccc(F)cc2c1N1CCC2(CCCO2)CC1)N1CCN(C(=O)C2CC2)CC1 [Example 66, (4-(cyclopropanecarbonyl)piperazin-1-yl)(6-fluoro-4-(1-oxa-8-azaspiro[4.5]decan-8-yl)quinolin-3-yl)methanone]		1 to 10

Now from value to compound:

IC50 (ALDH1A1 enzyme) [µM]	IC50 (MIA PaCa-2 cells) [µM]	SMILES
	1 to 10	CS(=O)(=O)N1CCN(C(=O)c2cnc3ccc(F)cc3c2N2CCC(CO)(c3ccccc3)CC2)CC1 [Example 256, (6-fluoro-4-(4-(hydroxymethyl)-4-phenylpiperidin-1-yl)quinolin-3-yl)(4-(methylsulfonyl)piperazin-1-yl)methanone]
	< 0.5	CN(C)S(=O)(=O)N1CCN(C(=O)c2cnc3ccc(F)cc3c2N2CCC(C#N)(c3ccccc3)CC2)CC1 [Example 270, 4-(4-(4-cyano-4-phenylpiperidin-1-yl)-6-fluoroquinoline-3-carbonyl)-N,N-dimethylpiperazine-1-sulfonamide]
	< 0.5	CS(=O)(=O)N1CCN(C(=O)c2cnc3ccc(F)cc3c2-c2ccc(C3(C#N)CC3)cc2F)CC1 [Cpd. 315, 1-(3-fluoro-4-(6-fluoro-3-(4-(methylsulfonyl)piperazine-1-carbonyl)quinolin-4-yl)phenyl)cyclopropanecarbonitrile]
	< 0.5	COc1ccc2c(-c3ccc(C4(C#N)CC4)cc3)c(C(=O)N3CCN(S(C)(=O)=O)CC3)cnc2c1 [Cpd. 322, 1-(4-(7-methoxy-3-(4-(methylsulfonyl)piperazine-1-carbonyl)quinolin-4-yl)phenyl)cyclopropane-1-carbonitrile]
	< 0.5	CS(=O)(=O)N1CCN(C(=O)c2cnc3ccc(F)cc3c2-c2ccc(C3(C#N)CCCC3)cc2)CC1 [Cpd. 309, 1-(4-(6-fluoro-3-(4-(methylsulfonyl)piperazine-1-carbonyl)quinolin-4-yl)phenyl)cyclopentanecarbonitrile]
	< 0.5	CS(=O)(=O)N1CCN(C(=O)c2cnc3cc(F)c(F)cc3c2N2CCC(C#N)(c3ccccc3)CC2)CC1 [Cpd. 319, 1-(6,7-difluoro-3-(4-(methylsulfonyl)piperazine-1-carbonyl)quinolin-4-yl)-4-phenylpiperidine-4-carbonitrile]
	< 0.5	CN(C)C(=O)N1CCN(C(=O)c2cnc3ccc(F)cc3c2N2CCC(C#N)(c3ccccc3)CC2)CC1 [Example 272, 4-(4-(4-cyano-4-phenylpiperidin-1-yl)-6-fluoroquinoline-3-carbonyl)-N,N-dimethylpiperazine-1-carboxamide]
	< 0.5	N#CC1(c2ccc(-c3c(C(=O)N4CCN(C(=O)C5CC5)CC4)cnc4ccsc34)cc2)CC1 [Example 288, 1-(4-(6-(4-(cyclopropanecarbonyl)piperazine-1-carbonyl)thieno[3,2-b]pyridin-7-yl)phenyl)cyclopropanecarbonitrile]
	< 0.5	CS(=O)(=O)N1CCN(C(=O)c2cnc3ccc(F)cc3c2-c2ccc(C3(C#N)CCC3)cc2)CC1 [Cpd. 308, 1-(4-(6-fluoro-3-(4-(methylsulfonyl)piperazine-1-carbonyl)quinolin-4-yl)phenyl)cyclobutanecarbonitrile]
	< 0.5	CS(=O)(=O)N1CCN(C(=O)c2cnc3ccc(F)cc3c2N2CCC(C#N)(c3ccc(F)cc3)CC2)CC1 [Example 279, 1-(6-fluoro-3-(4-(methylsulfonyl)piperazine-1-carbonyl)quinolin-4-yl)-4-(4-fluorophenyl)piperidine-4-carbonitrile]
	< 0.5	CC(C)(C)c1ccc(-c2c(C(=O)N3CCN(S(C)(=O)=O)CC3)cnc3ccc(F)cc23)cc1 [Cpd. 306, (4-(4-(tert-butyl)phenyl)-6-fluoroquinolin-3-yl)(4-(methylsulfonyl)piperazin-1-yl)methanone]
	< 0.5	CC1(C)CC=C(c2c(C(=O)N3CCN(S(C)(=O)=O)CC3)cnc3ccc(F)cc23)CC1 [Example 301, (4-(4,4-dimethylcyclohex-1-en-1-yl)-6-fluoroquinolin-3-yl)(4-(methylsulfonyl)piperazin-1-yl)methanone]

Reference: US11795177B2, “Substituted quinoline analogs as aldehyde dehydrogenase 1A1 (ALDH1A1) inhibitors” (THE UNITED STATES OF AMERICA, AS REPRESENTED BY THE …, priority 2017, dated 2023)
